The text below walks through data of publication PMC8851771, “Molecular action of larvicidal flavonoids on ecdysteroidogenic glutathione S-transferase Noppera-bo in Aedes aegypti” (BMC Biology, 2022).

For data set [1], the target named is T1, DmNobo (Drosophila melanogaster, UniProt Q7JYX0).
T1 construct: made in house; host or cells: E. coli
The conditions noted are these: read-out: IC50 against DmNobo; cited from earlier work.

The test system of data set [2] is DmNobo Asp-113 substituted with Ala. Also on record: method as in PMID 32241910. The conditions noted are these: cited from earlier work.
The target of data set [3] is AeNobo-WT (Aedes aegypti, UniProt A0A1S4FIB3). The experiment in a line: GST activity inhibition assay with 3,4-DNADCF, wild-type AeNobo. In kind it is biochemical. The protocol:
We prepared a purified AeNobo recombinant protein (220-aa length) using an Escherichia coli protein expression system. The GST enzymatic activity was examined using the fluorogenic artificial substrate 3,4-dinitrobenzamidedichlorofluorescein (3,4-DNADCF).
The IC50 value was measured using an in vitro assay system as described previously. […] Five microliters of each diluted compound solution was mixed with 245 μL of solution A (100 mM sodium phosphate buffer at pH 6.5, 0.01% Tween 20, 2 mM GSH, and 50 ng/mL AeNobo-WT, 100 ng/mL AeNobo-E113A, and 200 ng/mL F39L). One hundred microliters of the mixture was dispensed into wells of a 96-well plate. One hundred microliters of solution B (0.2 μM 3,4-DNADCF and 100 mM sodium phosphate buffer at pH 6.5) was added to each well. In summary, the final reaction system comprised 100 mM sodium phosphate buffer (pH 6.5), 1 mM GSH, 0.005% Tween 20, 0.1 μM 3,4-DNACDF, and 25 ng/mL AeNobo, 50 ng/mL AeNobo-E113A, or 100 ng/mL AeNobo-F39L protein. The fluorescence intensity derived from 4-GS-3-NADCF, a product of this reaction, was measured for 3 min. IC50 values were estimated as described previously. The enzymatic assays under each condition were performed at least twice independently.
To identify inhibitors of AeNobo enzymatic activity, a high-throughput screening was performed as described in a previous study. Briefly, a core library of 9600 compounds obtained from the Drug Discovery Initiative, The University of Tokyo, was utilized for screening. In this screen, the enzymatic activity of AeNobo was detected using 3,4-DNADCF [29]. […] Then, 1 μL of solution B (4 μM 3,4-DNADCF, 100 mM sodium phosphate at pH 6.5, and 0.005% Tween 20) was added into each well. In summary, the reaction system comprised 5.6 ng/mL AeNobo protein, 2 μM 3,4-DNADCF, 1 mM GSH, 0.005% Tween 20, and 100 mM sodium phosphate at pH 6.5, together with each compound at 10 μM. The plate was incubated for 30 min at 25–27 °C and 2 μL of 10 mM N-ethylmaleimide was added into each well to stop the reaction. […] For the second screen, we assayed the IC50 values of the compounds against the enzymatic activity of AeNobo.

The target of data set [4] is T1, DmNobo. Put plainly: GST activity inhibition assay with 3,4-DNADCF, DmNobo. In kind it is biochemical.
For data set [5], the system named is estrogen receptors (ERs). The conditions noted are these: does not promote ER binding activity to estrogen response elements; cited from earlier work.
For data set [6], the target named is AeNobo-F39L (Aedes aegypti, UniProt A0A1S4FIB3, F90L). The experiment in a line: GST activity inhibition assay with 3,4-DNADCF, AeNobo-F39L. In kind it is biochemical. The protocol: (§1) pCold III plasmids expressing the AeNobo-E113A and AeNobo-F39L were constructed using KOD-Plus-Mutagenesis Kit (Toyobo). The following primers were used: E113A-F (5′-[…]-3′) and E113A-R (5′-[…]-3′) for AeNobo-E113A and F39L-F (5′-[…]-3′) and F39L-R (5′-[…]-3′) for AeNobo-F39L. We conducted inverse PCR using KOD-plus polymerase, pColdIII/AeNobo-WT plasmid, and the primer pair described above under the following conditions: pre-denaturation at 94 °C for 2 min, denaturation at 98 °C for 10 s, and extension at 68 °C for 6 min for 6 cycles. The PCR products were treated with DpnI at 37 °C for 1 h, followed by self-ligation using T4 polynucleotide kinase and Ligation High. After the transformation of DH5α bacteria using the ligation products, we extracted plasmid DNA from the colonies and verified their sequences to confirm whether the appropriate point mutations were introduced.
The IC50 value was measured using an in vitro assay system as described previously. A dilution series of compounds, ranging from 2.5 mM to 0.127 μM for DMG and from 2.5 mM to 4.9 μM for other compounds, was prepared by 2-fold serial dilution in DMSO. […] The fluorescence intensity derived from 4-GS-3-NADCF, a product of this reaction, was measured for 3 min. […]

In data set [7] the test system is D. melanogaster 1st instar larvae. Put plainly: Drosophila melanogaster survival assay. Type of data set: in vivo. The conditions noted are these: 10 ppm in food. The method, then:
We also conducted larvicidal assays using D. melanogaster. When we placed D. melanogaster 1st instar larvae in food containing 10 ppm DMG, pupariation rate and pupation timing were not affected when compared with a control group (Additional file 1: Figure S10). […] A […] DMG stock solution was prepared in 100% DMSO. Ten microliters of the DMG stock solution or 10 μL of DMSO alone was mixed with 10 g of standard cornmeal medium and 1 mL of autoclaved water. The volume of the mixed food was approximately 10 mL, and therefore, the food contained 0.1% DMSO with or without 10 ppm DMG. Two grams of the food were dispensed into each 12-mL plastic vial (Sarstedt). D. melanogaster wild-type Canton-S were given the opportunity to lay eggs on a grape juice agar with yeast paste for 12 h. After egg collection, the embryos were reared at 25 °C for 24 h, and then 20 1st instar larvae were transferred to each vial and reared at 25°C. The numbers of pupae were counted daily, and the timing of pupation was recorded.

Data set [8] concerns the target AeNobo-E113A (Aedes aegypti, UniProt A0A1S4FIB3, E164K). Put plainly: GST activity inhibition assay with 3,4-DNADCF, AeNobo-E113A. The following applies: at a concentration of 25 μM. Type of data set: biochemical.
Source text: The importance of the Glu-113–flavonoid hydrogen bond for flavonoid binding was biochemically examined with a recombinant mutated AeNobo protein carrying an E113A aa substitution (AeNobo-E113A).
as §1
The IC50 value was measured using an in vitro assay system as described previously. A dilution series of compounds, ranging from 2.5 mM to 0.127 μM for DMG and from 2.5 mM to 4.9 μM for other compounds, was prepared by 2-fold serial dilution in DMSO. Five microliters of each diluted compound solution was mixed with 245 μL of solution A (100 mM sodium phosphate buffer at pH 6.5, 0.01% Tween 20, 2 mM GSH, and 50 ng/mL AeNobo-WT, 100 ng/mL AeNobo-E113A, and 200 ng/mL F39L). One hundred microliters of the mixture was dispensed into wells of a 96-well plate. One hundred microliters of solution B (0.2 μM 3,4-DNADCF and 100 mM sodium phosphate buffer at pH 6.5) was added to each well. In summary, the final reaction system comprised 100 mM sodium phosphate buffer (pH 6.5), 1 mM GSH, 0.005% Tween 20, 0.1 μM 3,4-DNACDF, and 25 ng/mL AeNobo, 50 ng/mL AeNobo-E113A, or 100 ng/mL AeNobo-F39L protein. The fluorescence intensity derived from 4-GS-3-NADCF, a product of this reaction, was measured for 3 min. IC50 values were estimated as described previously. The enzymatic assays under each condition were performed at least twice independently.

Data set [9] deals with Ae. aegypti 1st instar larvae. Put plainly: Aedes aegypti larvicidal assay. The following applies: above 10 ppm, 24-h treatment. In kind it is in vivo. The method, then:
To test this, we conducted larvicidal assays using Ae. aegypti larvae.
The dried eggs on filter papers were soaked in distilled water. Three hours after soaking, the first instar larvae were transferred to 30 mL of fresh distilled water in a 50-mL plastic cup with a lid containing air holes. In the rearing water, 2 mg of the powdered goldfish food (Hikari Medium Grain, Kyorin Co., Ltd.) was added to each cup as food for Ae. aegypti larvae. In each cup, we poured the 30 mL rearing water containing 1 ppm, 10 ppm, or 100 ppm of the compounds with 0.1% ethanol at the final concentration, followed by placing 20 larvae. Twenty-four hours after the addition of flavonoids, the number of living and dead larvae was recorded. Larvacidal assays under each condition were performed 5 times independently. The larval instars 24 h after the addition of DMG were identified by measuring the transverse diameter of the Ae. aegypti larval head. Photographs of whole bodies of larvae were taken and the head diameter was then measured using ImageJ software.

For data set [10], the target named is Aedes aegypti Noppera-bo (AeNobo), wild type, 220-aa protein (Aedes aegypti). Put plainly: SEC; gel filtration of purified AeNobo on HiLoad Superdex200 26/60; 150 mM NaCl, 25 mM Tris-HCl pH 8.0, 5 mM DTT; 1 mL/min; compared with marker proteins.

Like-named read-outs stand apart in the source and are kept apart here.

AeNobo-WT, sequence (A0A1S4FIB3 entry or part of it): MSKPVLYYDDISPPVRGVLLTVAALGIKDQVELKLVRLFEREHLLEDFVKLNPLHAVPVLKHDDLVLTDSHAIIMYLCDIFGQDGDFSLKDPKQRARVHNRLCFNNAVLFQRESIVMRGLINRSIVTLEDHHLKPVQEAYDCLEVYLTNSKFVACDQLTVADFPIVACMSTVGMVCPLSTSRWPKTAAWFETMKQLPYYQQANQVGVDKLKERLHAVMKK
T1 sequence (Q7JYX0 whole entry): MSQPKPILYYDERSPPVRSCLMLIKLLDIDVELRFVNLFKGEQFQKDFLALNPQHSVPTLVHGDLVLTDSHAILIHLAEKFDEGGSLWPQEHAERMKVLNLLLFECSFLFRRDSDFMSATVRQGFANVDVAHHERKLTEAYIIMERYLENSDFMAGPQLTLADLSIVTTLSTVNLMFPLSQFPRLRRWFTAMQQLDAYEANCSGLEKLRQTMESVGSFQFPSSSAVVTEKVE
AeNobo-F39L, sequence (A0A1S4FIB3 entry or part of it F90L): as the sequence (A0A1S4FIB3 entry or part of it) above, with F39L counted along it
AeNobo-E113A, sequence (A0A1S4FIB3 entry or part of it E164K): as the sequence (A0A1S4FIB3 entry or part of it) above, with E113K counted along it

By IC50 is commonly meant the concentration needed to halve the response being measured. Regarding `C[C@]12CC[C@@H]3c4ccc(O)cc4CC[C@H]3[C@@H]1CC[C@@H]2O` [17β-estradiol], the IC50 in data set [1] was 1200 to 2300 nM; in data set [3] (text and figures, 3,4-DNADCF, read-out: IC50 against AeNobo (WT)), 21.3 µM; in data set [4], 2330 ± 80 nM. The “Inhibition of enzymatic activity of DmNobo with Asp-113 substituted with Ala” value in [2] is given as “does not inhibit”. In addition, the “IC50 against AeNobo relative to that against DmNobo” value in data set [3] (higher against AeNobo) is listed as “approximately 10 fold”.

Turning to `O=c1c(-c2ccc(O)cc2)coc2cc(O)c(O)cc12` [Desmethylglycitein, 4′,6,7-trihydroxyisoflavone], in data set [5], the Estrogenic activity entry is given as “does not exhibit estrogenic activity”. Moreover, the results for the IC50 in data set [6] and in data set [3] (read-out: IC50 (μM) (mean ± s.d.)) were 1160 nM and 0.293 ± 0.012 µM, respectively. In data set [7], the Development to adults entry is reported as “most larvae became adults”. Also, in data set [7] (1st instar larvae), the “Pupariation rate and pupation timing compared with control” value was “not affected”. In addition, in [8], the “Inhibition of enzymatic activity of AeNobo-E113A” value is reported as “not inhibited”. For the same compound, the Lethality entry in data set [9] is recorded as “high lethality”.

What is called stoichiometry N is a count of units in the complex or per binding partner. The compound “Aedes aegypti Noppera-bo (AeNobo), wild type, 220-aa protein (enzyme)” registered a stoichiometry N in data set [10] of 2.
